Measured values as given in PubChem BioAssay AID687032 (Broad Institute, 2013).
Results filed as inconclusive are left out.

Test system: IOSE-T80 viability, CellTiterGlo ATP luminescence, 96 h
Experiment: cytotoxicity in IOSE-T80 ovarian epithelial cells, dose response, selectivity assay for PAX8 inhibitor project, cell-based, cherry-pick (AID 687032)

Compound	AC50
C[C@H](CO)N1C[C@H](C)[C@H](CN(C)Cc2ccc(C(F)(F)F)cc2)OCCCC[C@H](C)Oc2ccc(NS(=O)(=O)c3ccccc3)cc2C1=O	< 260 nM
Cc1ccsc1/C=N/Nc1cccc(C(=O)O)c1	17300 nM
C[C@@H]1CCCCO[C@@H](CN(C)Cc2ccc(Cl)c(Cl)c2)[C@H](C)CN([C@H](C)CO)C(=O)c2cc(NC(=O)Nc3ccc(C(F)(F)F)cc3)ccc2O1	35600 nM
S=c1sc2c(Cl)ncnc2n1-c1ccccc1	< 260 nM
Cc1cnc(NC(=O)CSc2nnc(C)n2N)s1	< 260 nM
Cc1ccc(S(=O)(=O)N(C)C[C@@H]2Oc3cc(C#Cc4ccncc4)ccc3S(=O)(=O)N([C@H](C)CO)C[C@@H]2C)cc1	24200 nM
O=C(NCc1ccco1)C1CCCN(S(=O)(=O)c2ccc(Br)cc2)C1 (stereo unspecified)	< 260 nM
C[C@@H]1CN([C@H](C)CO)C(=O)c2cc(NC(=O)Nc3ccc(C(F)(F)F)cc3)ccc2O[C@@H](C)CCCCO[C@H]1CN(C)Cc1ccccc1	< 260 nM
Cc1ccc(C(=O)N/C(=C\c2ccc(-c3ccc(Br)cc3)o2)C(=O)NCCCN(C)C)cc1	9400 nM
Cc1ccc(NC(=O)Cn2ncc(Cl)c(Cl)c2=O)cc1S(=O)(=O)N1CCCCC1	< 260 nM
O=c1cc(-c2ccccc2)oc2ccc3ccccc3c12	< 260 nM
C[C@@H]1CCCCO[C@H](CN(C)Cc2ccc(C(F)(F)F)cc2)[C@H](C)CN([C@@H](C)CO)C(=O)c2cc(NS(=O)(=O)c3cccs3)ccc2O1	33500 nM
CCC(C)(O)C(=O)OC1C(=O)OC2CC3C(C)=CC(=O)C(O)C3(C)C3C4(O)OCC23C1C(C)C4O (stereo unspecified)	8840 nM
FC(F)(F)c1nnc2c(Sc3ccccn3)nc3ccccc3n12	8850 nM
COc1ccc(NC(=O)c2c(Nc3ccccc3)sc(C(=O)c3ccc(F)cc3)c2N)cc1	< 260 nM
CCN(CC)S(=O)(=O)c1cc(NC(=O)Cn2ncc(Cl)c(Cl)c2=O)ccc1C	< 260 nM

Compound	AC50
Cc1cc(Nc2ccc3c(c2)OCCO3)c2ccccc2n1	< 260 nM
Cn1nnnc1Sc1ncnc2scc(-c3cccc(S(C)(=O)=O)c3)c12	8510 nM
O=C(NC12CC3CC(CC(C3)C1)C2)c1ccc([N+](=O)[O-])o1	< 260 nM
COc1ccc2c(COC(=O)CNC(=O)C34CC5CC(CC(C5)C3)C4)cc(=O)oc2c1	< 260 nM
CC(=O)[C@@]1(O)Cc2c(O)c3c(c(O)c2[C@H](O[C@H]2C[C@H](N)[C@H](O)[C@H](C)O2)C1)C(=O)c1ccccc1C3=O	8800 nM
C[C@H](CO)N1C[C@H](C)[C@@H](CN(C)CC2CCCCC2)Oc2c(NC(=O)CCCCCC(=O)Nc3ccccc3N)cccc2C1=O	< 260 nM
C[C@@H]1CCCCO[C@H](CN(C)C(=O)Cc2ccccc2)[C@@H](C)CN([C@@H](C)CO)C(=O)c2cc(NC(=O)Nc3ccc(C(F)(F)F)cc3)ccc2O1	< 260 nM
Cn1c(CCN2CCCC2)nc2cc(NS(=O)(=O)c3ccccc3)ccc21	< 260 nM
Cn1ncc2c(O/N=C(\N)c3ccc(C(F)(F)F)cc3)ncnc21	< 260 nM
Cc1ccc(S(=O)(=O)Nc2ccc3c(c2)C(=O)N([C@H](C)CO)C[C@@H](C)[C@H](CN(C)Cc2ccc(C(F)(F)F)cc2)OCCCC[C@@H](C)O3)cc1	< 260 nM
C[C@@H]1CN([C@H](C)CO)C(=O)c2cc(NS(=O)(=O)c3ccc(Cl)cc3)ccc2O[C@@H](C)CCCCO[C@@H]1CN(C)Cc1ccccc1	< 260 nM
CCC(c1nnnn1Cc1ccccc1)N1CCC(n2c(=O)[nH]c3ccccc32)CC1 (stereo unspecified)	< 260 nM
COc1cc(C2C3=C(COC3=O)Oc3cc4c(cc32)OCO4)cc(OC)c1O (stereo unspecified)	< 260 nM
C[C@@H]1CCCCO[C@@H](CN(C)Cc2ccc(C(F)(F)F)cc2)[C@@H](C)CN([C@@H](C)CO)C(=O)c2cc(NS(=O)(=O)c3ccccc3)ccc2O1	< 260 nM
Cc1ccc(NC(=O)CN(C)C(=O)Cn2ncc(Cl)c(Cl)c2=O)cc1	< 260 nM
